ChEMBL document CHEMBL3885881, “DrugMatrix”

Species: Rattus norvegicus
Experiment: DrugMatrix - Regimen: Daily Repeat
Format: toxicity, organism-based, Sprague-Dawley
Parameters: regimen Daily Repeat, gender Male, age 6-8 weeks
Details: in vivo, sc, […], route mini-PUMP - SUBCUTANEOUS, vehicle 100 % SALINE; for ALANINE AMINOTRANSFERASE / ALBUMIN / ALKALINE PHOSPHATASE / ASPARTATE AMINOTRANSFERASE / BLOOD UREA NITROGEN / CARBON DIOXIDE / CHLORIDE / CHOLESTEROL / CREATININE / LACTATE DEHYDROGENASE / LIPASE / PHOSPHORUS / POTASSIUM / SODIUM / TOTAL BILIRUBIN / TOTAL PROTEIN: tissue Plasma
[1] = 0 mg/kg, tissue Blood, dose level Control, time 14 day
[2] = 0 mg/kg, dose level Control, time 14 day
[3] = 72 h, tissue Blood, dose 0.77 mg/Kg, dose level High, time 3 day
[4] = 72 h, dose 0.77 mg/Kg, dose level High, time 3 day
[5] = 120 h, tissue Blood, dose 0.77 mg/Kg, dose level High, time 5 day
[6] = 120 h, dose 0.77 mg/Kg, dose level High, time 5 day

CNCC(O)c1ccc(O)c(O)c1 (stereo unspecified) [RACEPINEPHRINE]
NUCLEATED RED BLOOD CELLS [1]: 0.17 /100WBC
PLATELET COUNT [1]: 1016 x10E3/uL
ALANINE AMINOTRANSFERASE [2]: 53.33 u/L
ALBUMIN [2]: 3.93 G/DL
ALKALINE PHOSPHATASE [2]: 319.83 u/L
ASPARTATE AMINOTRANSFERASE [2]: 84 u/L
BLOOD UREA NITROGEN [2]: 15.5 mg/dL
CARBON DIOXIDE [2]: 34 mmol/L
CHLORIDE [2]: 101.83 MEQ/L
CHOLESTEROL [2]: 57 mg/dL
CREATININE [2]: 0.21 mg/dL
LACTATE DEHYDROGENASE [2]: 104.67 u/L
LIPASE [2]: 9.17 u/L
PHOSPHORUS [2]: 11.12 mg/dL
POTASSIUM [2]: 5.81 MEQ/L
SODIUM [2]: 144.85 MEQ/L
TOTAL BILIRUBIN [2]: 0.18 mg/dL
TOTAL PROTEIN [2]: 5.92 G/DL
ABSOLUTE BASOPHIL [3]: 0 CELLS/uL
ABSOLUTE EOSINOPHIL [3]: 65.33 CELLS/uL
ABSOLUTE LYMPHOCYTE [3]: 15348.67 CELLS/uL
ABSOLUTE MONOCYTE [3]: 375.67 CELLS/uL
ABSOLUTE SEGMENTED NEUTROPHIL [3]: 2177 CELLS/uL
BASOPHIL [3]: 0%
ERYTHROCYTE COUNT [3]: 6.29 x10E6/uL
HEMOGLOBIN [3]: 13.53 G/DL
LEUKOCYTE COUNT [3]: 17.97 x10E3/uL
MEAN CORPUSCULAR HEMOGLOBIN [3]: 21.53 pg
MEAN CORPUSCULAR HEMOGLOBIN CONCENTRATION [3]: 36.13 G/DL
MEAN CORPUSCULAR VOLUME [3]: 59.7 fL
NUCLEATED RED BLOOD CELLS [3]: 0 /100WBC
PLATELET COUNT [3]: 1245.67 x10E3/uL
ALANINE AMINOTRANSFERASE [4]: 52.67 u/L
ALBUMIN [4]: 4 G/DL
ALKALINE PHOSPHATASE [4]: 340.67 u/L
ASPARTATE AMINOTRANSFERASE [4]: 85 u/L
BLOOD UREA NITROGEN [4]: 16.33 mg/dL
CARBON DIOXIDE [4]: 25.67 mmol/L
CHLORIDE [4]: 101 MEQ/L
CHOLESTEROL [4]: 83.33 mg/dL
LACTATE DEHYDROGENASE [4]: 441.33 u/L
LIPASE [4]: 9.67 u/L
PHOSPHORUS [4]: 12.23 mg/dL
POTASSIUM [4]: 6.83 MEQ/L
SODIUM [4]: 145.53 MEQ/L
TOTAL BILIRUBIN [4]: 0.13 mg/dL
TOTAL PROTEIN [4]: 6.3 G/DL
ABSOLUTE BASOPHIL [5]: 0 CELLS/uL
ABSOLUTE EOSINOPHIL [5]: 0 CELLS/uL
ABSOLUTE LYMPHOCYTE [5]: 14606 CELLS/uL
ABSOLUTE MONOCYTE [5]: 577.33 CELLS/uL
ABSOLUTE SEGMENTED NEUTROPHIL [5]: 4283.33 CELLS/uL
BASOPHIL [5]: 0%
EOSINOPHIL [5]: 0%
ERYTHROCYTE COUNT [5]: 6.1 x10E6/uL
HEMOGLOBIN [5]: 13.07 G/DL
LEUKOCYTE COUNT [5]: 19.47 x10E3/uL
LYMPHOCYTE [5]: 75%
MEAN CORPUSCULAR HEMOGLOBIN [5]: 21.43 pg
MEAN CORPUSCULAR HEMOGLOBIN CONCENTRATION [5]: 36.87 G/DL
MEAN CORPUSCULAR VOLUME [5]: 58.1 fL
NUCLEATED RED BLOOD CELLS [5]: 0 /100WBC
PLATELET COUNT [5]: 1295.33 x10E3/uL
ALANINE AMINOTRANSFERASE [6]: 52.33 u/L
ALBUMIN [6]: 3.83 G/DL
ALKALINE PHOSPHATASE [6]: 328 u/L
ASPARTATE AMINOTRANSFERASE [6]: 85.67 u/L
CHOLESTEROL [6]: 64.67 mg/dL
CREATININE [6]: 0.15 mg/dL
LACTATE DEHYDROGENASE [6]: 386.33 u/L
LIPASE [6]: 9 u/L
PHOSPHORUS [6]: 12.27 mg/dL
POTASSIUM [6]: 6.8 MEQ/L
SODIUM [6]: 147.2 MEQ/L
TOTAL BILIRUBIN [6]: 0.1 mg/dL
TOTAL PROTEIN [6]: 5.9 G/DL
